For series [1] the following is noted: prior-art NO-releasing small molecules; cited from earlier work.

As to `O=C(CCCCCO[N+](=O)[O-])Oc1ccc(-c2coc3cc(OC(=O)CCCCCO[N+](=O)[O-])ccc3c2=O)cc1`, the melting point lay within 100 to 102 °C.

For the compound `CC(C)(SN=O)C(N)C(=O)O` (racemic) [S-nitroso-D,L-penicillamine], the “lifetime in physiological solution” value in series [1] is “no more than about an hour”.

On to `N[C@@H](CSN=O)C(=O)O` [S-nitrosocysteine], for which the “lifetime in physiological solution” value in series [1] is “no more than about an hour”.

One may read the melting point as the temperature of the solid-liquid transition.

The values are drawn from US8062653B2, “Controlled release of nitric oxide and drugs from functionalized macromers and oligomers” (Bezwada Biomedical, LLC, priority 2009, dated 2011).
